{
  "source": "patent US20230123334A1",
  "about": "“AMINO LIPID COMPOUND, PREPARATION METHOD THEREFOR, AND APPLICATION THEREOF” (SHENZHEN SHENXIN BIOTECHNOLOGY CO., LTD., priority 2020, published 2023)",
  "data": [
    {"system": "HEK293 cells", "experiment": "Preliminary screening as mRNA vectors, EGFP mRNA transfection of HEK293 cells", "type": "cell-based", "settings": "EGFP mRNA 50 ng per well, 96-well plates; percentage of GFP fluorescent cells relative to total number of cells (Hoechst)", "summary_of_the_method": "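HEK293 cells in DMEM plus 10% FBS transfected in 96-well format with 50 ng EGFP mRNA per well; Lipofectamine2000 served as positive control. Read-out is the percentage of GFP-fluorescent cells among total cells, counted by Hoechst nuclear stain.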", "units": {"Absolute mRNA transfection efficiency in HEK293 cells": "%"}, "values": [
      {"molecule": "CCCCCCCCCCCCCCCSc1nc(NCCCCCCCCC)nc(NCCCN2CCOCC2)n1", "note": "[Compound D8S15N9]", "Absolute mRNA transfection efficiency in HEK293 cells": 1.1},
      {"molecule": "CCCCCCCCCCSc1nc(NCCCCCCCCC)nc(NCCN2CCN(C)CC2)n1", "note": "[Compound D5S10N9]", "Absolute mRNA transfection efficiency in HEK293 cells": 8.5},
      {"molecule": "CCCCCCCCCNc1nc(NCCCN2CCOCC2)nc(SCCCCCCC)n1", "note": "[Compound D8S7N9]", "Absolute mRNA transfection efficiency in HEK293 cells": 10.6},
      {"molecule": "CCCCCCCCCCCSc1nc(NCCN2CCN(C)CC2)nc(SCCCCCCCC)n1", "note": "[Compound D5S8S11]", "Absolute mRNA transfection efficiency in HEK293 cells": 87.0},
      {"molecule": "CCCCCCCCCCCCNc1nc(NCCCN2CCN(C)CC2)nc(SCCCCCCCC)n1", "note": "[Compound D9S8N12]", "Absolute mRNA transfection efficiency in HEK293 cells": 57.6},
      {"molecule": "CCCCCCCCCCCCCCCCNc1nc(NCCCN(C)C)nc(SCCCCCC)n1", "note": "[Compound D6S6N16]", "Absolute mRNA transfection efficiency in HEK293 cells": 40.4},
      {"molecule": "CCCCCCCCCCCSc1nc(NCCCCCCC)nc(NCCN2CCCCC2)n1", "note": "[Compound D4S11N7]", "Absolute mRNA transfection efficiency in HEK293 cells": 2.3},
      {"molecule": "CCCCCCCCCCCCCCCCNc1nc(NCCCN2CCOCC2)nc(SCCCCCCCC)n1", "note": "[Compound D8S8N16]", "Absolute mRNA transfection efficiency in HEK293 cells": 4.9},
      {"molecule": "CCCCCCCSc1nc(NCCN(C)C)nc(SCCCCCCC)n1", "note": "[Compound D1S7S7]", "Absolute mRNA transfection efficiency in HEK293 cells": 14.9},
      {"molecule": "CCCCCCCCCSc1nc(NCC2CCN(C)CC2)nc(SCCCCCC)n1", "note": "[Compound D10S6S9]", "Absolute mRNA transfection efficiency in HEK293 cells": 14.7},
      {"molecule": "CCCCCCCCCCCCCCCCCCNc1nc(NCCN(CC)CC)nc(SCCCCCCCCCC)n1", "note": "[Compound D7S10N18]", "Absolute mRNA transfection efficiency in HEK293 cells": 25.9},
      {"molecule": "CCCCCCCCCCCCCCCNc1nc(NCCN2CCOCC2)nc(SCCCCCCCCCC)n1", "note": "[Compound D2S10N15]", "Absolute mRNA transfection efficiency in HEK293 cells": 1.3},
      {"molecule": "CCCCCCCCNc1nc(NCCCN2CCN(C)CC2)nc(SCCCCCC)n1", "note": "[Compound D9S6N8]", "Absolute mRNA transfection efficiency in HEK293 cells": 2.5},
      {"molecule": "CCCCCCCCCCCCCCCCCCNc1nc(NCCCN2CCN(C)CC2)nc(SCCCCCC)n1", "note": "[Compound D9S6N18]", "Absolute mRNA transfection efficiency in HEK293 cells": 24.0},
      {"molecule": "CCCCCCCCCCCCCCCSc1nc(NCCCCCCCCC)nc(NCCN2CCOCC2)n1", "note": "[Compound D2S15N9]", "Absolute mRNA transfection efficiency in HEK293 cells": 1.1},
      {"molecule": "CCCCCCCCCCCCCNc1nc(NCCCN2CCOCC2)nc(SCCCCCCCC)n1", "note": "[Compound D8S8N13]", "Absolute mRNA transfection efficiency in HEK293 cells": 1.5},
      {"molecule": "CCCCCCCCCCCCCCSc1nc(NCCCCCCCCCCCCC)nc(NCCN2CCCC2)n1", "note": "[Compound D3S14N13]", "Absolute mRNA transfection efficiency in HEK293 cells": 25.9},
      {"molecule": "CCCCCCCCCCCCSc1nc(NCCCCCC)nc(NCCN2CCCCC2)n1", "note": "[Compound D4S12N6]", "Absolute mRNA transfection efficiency in HEK293 cells": 0.9},
      {"molecule": "CCCCCCCCCCCSc1nc(NCCCCCCCCC)nc(NCCN2CCCCC2)n1", "note": "[Compound D4S11N9]", "Absolute mRNA transfection efficiency in HEK293 cells": 4.2},
      {"molecule": "CCCCCCCCCCCCSc1nc(NCCN2CCN(C)CC2)nc(SCCCCCC)n1", "note": "[Compound D5S6S12]", "Absolute mRNA transfection efficiency in HEK293 cells": 14.0},
      {"molecule": "CCCCCCNc1nc(NCCCN(C)C)nc(SCCCCCC)n1", "note": "[Compound D6S6N6]", "Absolute mRNA transfection efficiency in HEK293 cells": 0.0},
      {"molecule": "CCCCCCCCCCCCCCCNc1nc(NCCCN(C)C)nc(SCCCCCCCCC)n1", "note": "[Compound D6S9N15]", "Absolute mRNA transfection efficiency in HEK293 cells": 36.5},
      {"molecule": "CCCCCCCCCCCCCCCSc1nc(NCCCCCCCCCCC)nc(NCCN(C)C)n1", "note": "[Compound D1S15N11]", "Absolute mRNA transfection efficiency in HEK293 cells": 11.9},
      {"molecule": "CCCCCCCSc1nc(NCCCCCC)nc(NCC2CCN(C)CC2)n1", "note": "[Compound D10S7N6]", "Absolute mRNA transfection efficiency in HEK293 cells": 2.0},
      {"molecule": "CCCCCCCCCCCCCCCCCCNc1nc(NCCN2CCCCC2)nc(SCCCCCCCCCCC)n1", "note": "[Compound D4S11N18]", "Absolute mRNA transfection efficiency in HEK293 cells": 8.8},
      {"molecule": "CCCCCCCCCCCCCCCSc1nc(NCCN(C)C)nc(SCCCCCCC)n1", "note": "[Compound D1S7S15]", "Absolute mRNA transfection efficiency in HEK293 cells": 3.9},
      {"molecule": "CCCCCCCCCCCCCCCCNc1nc(NCCCN(C)C)nc(SCCCCCCCCCCCCCCC)n1", "note": "[Compound D6S15N16]", "Absolute mRNA transfection efficiency in HEK293 cells": 0.2},
      {"molecule": "CCCCCCCCCCSc1nc(NCCCCCCCC)nc(NCCN(C)C)n1", "note": "[Compound D1S10N8]", "Absolute mRNA transfection efficiency in HEK293 cells": 0.5},
      {"molecule": "CCCCCCCCNc1nc(NCCN(CC)CC)nc(SCCCCCCCC)n1", "note": "[Compound D7S8N8]", "Absolute mRNA transfection efficiency in HEK293 cells": 2.5},
      {"molecule": "CCCCCCCCCSc1nc(NCCCN2CCOCC2)nc(SCCCCCC)n1", "note": "[Compound D8S6S9]", "Absolute mRNA transfection efficiency in HEK293 cells": 5.0},
      {"molecule": "CCCCCCCCCCCCCCCCCCNc1nc(NCCN2CCCC2)nc(SCCCCCCCCCCC)n1", "note": "[Compound D3S11N18]", "Absolute mRNA transfection efficiency in HEK293 cells": 40.6},
      {"molecule": "CCCCCCCCCCSc1nc(NCCCCCC)nc(NCCN2CCCCC2)n1", "note": "[Compound D4S10N6]", "Absolute mRNA transfection efficiency in HEK293 cells": 0.1},
      {"molecule": "CCCCCCCCCCCCCCCCNc1nc(NCCN2CCN(C)CC2)nc(SCCCCCCCCCCCCCCCC)n1", "note": "[Compound D5S16N16]", "Absolute mRNA transfection efficiency in HEK293 cells": 0.1},
      {"molecule": "CCCCCCCCCCCCCCSc1nc(NCCCCCCCCCCCC)nc(NCCCN2CCOCC2)n1", "note": "[Compound D8S14N12]", "Absolute mRNA transfection efficiency in HEK293 cells": 1.3},
      {"molecule": "CCCCCCCCCCCCCCCCCCSc1nc(NCCCCCCC)nc(NCCCN(C)C)n1", "note": "[Compound D6S18N7]", "Absolute mRNA transfection efficiency in HEK293 cells": 87.5},
      {"molecule": "CCCCCCCCCCCCCCCCCCSc1nc(NCCCCCCCCCCCCC)nc(NCCN(C)C)n1", "note": "[Compound D1S18N13]", "Absolute mRNA transfection efficiency in HEK293 cells": 0.2},
      {"molecule": "CCCCCCCCCCCCNc1nc(NCCCN2CCOCC2)nc(SCCCCCCCCCC)n1", "note": "[Compound D8S10N12]", "Absolute mRNA transfection efficiency in HEK293 cells": 0.1},
      {"molecule": "CCCCCCCCCCCCCCCCNc1nc(NCCCN(C)C)nc(SCCCCCCCCC)n1", "note": "[Compound D6S9N16]", "Absolute mRNA transfection efficiency in HEK293 cells": 46.2},
      {"molecule": "CCCCCCCCCCCCCCCCSc1nc(NCCCCCCCCCCCC)nc(NCCCN(C)C)n1", "note": "[Compound D6S16N12]", "Absolute mRNA transfection efficiency in HEK293 cells": 2.0},
      {"molecule": "CCCCCCCCCCCCCCCCSc1nc(NCCCCCCCCC)nc(NCCN2CCCCC2)n1", "note": "[Compound D4S16N9]", "Absolute mRNA transfection efficiency in HEK293 cells": 1.0},
      {"molecule": "CCCCCCCCCCCCCCCCSc1nc(NCCCCCCCCCCCC)nc(NCCN2CCCCC2)n1", "note": "[Compound D4S16N12]", "Absolute mRNA transfection efficiency in HEK293 cells": 0.1},
      {"molecule": "CCCCCCCCCCSc1nc(NCCN2CCCCC2)nc(SCCCCCCC)n1", "note": "[Compound D4S7S10]", "Absolute mRNA transfection efficiency in HEK293 cells": 2.7},
      {"molecule": "CCCCCCCCCCCCCCCSc1nc(NCCCCCCC)nc(NCCN2CCCCC2)n1", "note": "[Compound D4S15N7]", "Absolute mRNA transfection efficiency in HEK293 cells": 1.2},
      {"molecule": "CCCCCCCCCCCCSc1nc(NCCCN(C)C)nc(N(CCCCCCCCCCCC)CCCCCCCCCCCC)n1", "note": "[D6S12^2N12]", "Absolute mRNA transfection efficiency in HEK293 cells": 2.4},
      {"molecule": "CCCCCCCCCCCCCNc1nc(NCCN2CCCC2)nc(SCCCCCCCCCCC)n1", "note": "[Compound D3S11N13]", "Absolute mRNA transfection efficiency in HEK293 cells": 25.9},
      {"molecule": "CCCCCCCCCCCCCCCCNc1nc(NCCN2CCOCC2)nc(SCCCCCCCCCCCC)n1", "note": "[Compound D2S12N16]", "Absolute mRNA transfection efficiency in HEK293 cells": 0.8},
      {"molecule": "CCCCCCCCCCCCCCCCCCSc1nc(NCCCCCCCCCCCCCCC)nc(NCCN2CCOCC2)n1", "note": "[Compound D2S18N15]", "Absolute mRNA transfection efficiency in HEK293 cells": 0.0},
      {"molecule": "CCCCCCCCCCSc1nc(NCCCCCCC)nc(NCC2CCN(C)CC2)n1", "note": "[Compound D10S10N7]", "Absolute mRNA transfection efficiency in HEK293 cells": 1.0},
      {"molecule": "CCCCCCCCCNc1nc(NCCN(CC)CC)nc(SCCCCCCC)n1", "note": "[Compound D7S7N9]", "Absolute mRNA transfection efficiency in HEK293 cells": 10.5},
      {"molecule": "CCCCCCCSc1nc(NCCN2CCN(C)CC2)nc(SCCCCCCC)n1", "note": "[Compound D5S7S7]", "Absolute mRNA transfection efficiency in HEK293 cells": 10.5}
    ]}
  ]
}
